These results are taken from patent US11453666B2, “Autotaxin inhibitory compounds” (Cancer Research Technology Limited, priority 2015, dated 2022).

This test addresses human recombinant ATX (Homo sapiens, UniProt Q13822). Kind of test: Autotaxin (ATX) activity Quanta Red assay. In kind it is biochemical. A digest of the protocol:
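Recombinant human ATX reaction stopped after 2 h with Quanta Red stop solution; fluorescence read at […]. Controls with DMSO, with and without ATX; IC50 in duplicate.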

Setting [1] is: read-out: Activity (ATX activity, Quanta Red assay; IC50).

Read-outs that look alike come from different tables or passages of the source.

For `C[C@H](NC(=O)CCc1nc2cccnc2n1Cc1ccc(OCc2ccccc2)cc1)c1ccc(F)cc1` [Example 80, 3-[3-(4-Benzyloxy-benzyl)-3H-imidazo[4,5-b]pyridin-2-yl]-N-[(S)-1-(4-fluoro-phenyl)-ethyl]-propionamide], the IC50 under setting [1] amounted to 844 nM.

Take `O=C(CCc1nc2cccnc2n1Cc1ccc(F)cc1)N[C@@H](CO)c1ccccc1` [Example 28, 3-[3-(4-Fluoro-benzyl)-3H-imidazo[4,5-b]pyridin-2-yl]-N-((R)-2-hydroxy-1-phenyl-ethyl)-propionamide]: the IC50 under setting [1] worked out at 5 nM. `C[C@H](NC(=O)CCc1cc2cccnc2n1Cc1ccc(OC(F)(F)F)cc1)c1ccc(F)cc1` [Example 137, N—[(S)-1-(4-fluoro-phenyl)-ethyl]-3-[1-(4-trifluoromethoxy-benzyl)-1H-pyrrolo[2,3-b]pyridin-2-yl]-propionamide]: the IC50 under setting [1] is 10 nM. Take `C[C@H](NC(=O)CCc1nc2cccnc2n1Cc1ccc(F)cc1)c1ccc(F)cc1` [Example 88, 3-[3-(4-Fluoro-benzyl)-3H-imidazo[4,5-b]pyridin-2-yl]-N-[(S)-1-(4-fluoro-phenyl)-ethyl]-propionamide]: the IC50 under setting [1] stood at 6 nM. Consider `COc1ccc(Cn2c(CCC(=O)N(C)Cc3ccccc3)nc3cccnc32)cc1` [Example 102], for which the IC50 under setting [1] was found to be 568 nM. Consider `O=C(CCc1nc2cccnc2n1Cc1ccccc1)NCc1ccc(Cl)cc1` [Example 217, 3-(3-Benzyl-3H-imidazo[4,5-b]pyridin-2-yl)-N-(4-chloro-benzyl)-propionamide], for which, under “Table 2: additional compounds tested for ATX activity (Quanta Red Assay), read-out: Activity”, the IC50 came out at 29 nM. In the case of `O=C(CCc1nc2cccnc2n1Cc1ccc(OC(F)(F)F)cc1)NCc1ccc(Cl)cc1` [Example 18, N-(4-Chloro-benzyl)-3-[3-(4-trifluoromethoxy-benzyl)-3H-imidazo[4,5-b]pyridin-2-yl]-propionamide], the IC50 under setting [1] was found to be 3 nM.

As to `C[C@H](NC(=O)CCc1nc2cccnc2n1Cc1ccc(F)cc1)c1ccc(N2CCCCCC2)cc1` [Example 178, N-[(S)-1-(4-Azepan-1-yl-phenyl)-ethyl]-3-[3-(4-fluoro-benzyl)-3H-imidazo[4,5-b]pyridin-2-yl]-propionamide], the IC50 under setting [1] stood at 3 nM. Regarding `O=C(CCc1nc2cccnc2n1Cc1ccc(OC(F)(F)F)cc1)N[C@@H](Cc1ccc(O)cc1)C(=O)O` [Example 200, (S)-3-(4-Hydroxy-phenyl)-2-{3-[3-(4-trifluoromethoxy-benzyl)-3H-imidazo[4,5-b]pyridin-2-yl]-propionylamino}-propionic acid], the IC50 under setting [1] was found to be 471 nM.

`COc1ccc(Cn2c(CCC(=O)N(C)[C@@H](C)c3ccccc3)nc3cccnc32)cc1` [Example 104, 3-[3-(4-Methoxy-benzyl)-3H-imidazo[4,5-b]pyridin-2-yl]-N-methyl-N-((S)-1-phenyl-ethyl)-propionamide]: under setting [1], the IC50 is 69 nM.

For `C[C@H](NC(=O)CCc1nc2cccnc2n1Cc1ccc(Br)cc1)c1ccc(F)cc1` [Example 16, 3-[3-(4-Bromo-benzyl)-3H-imidazo[4,5-b]pyridin-2-yl]-N-[(S)-1-(4-fluoro-phenyl)-ethyl]-propionamide], under setting [1], the IC50 is 3 nM. For the compound `C[C@H](NC(=O)CCc1nc2cccnc2n1Cc1ccc(F)cc1)c1ccccc1` [Example 87, 3-[3-(4-Fluoro-benzyl)-3H-imidazo[4,5-b]pyridin-2-yl]-N-((S)-1-phenyl-ethyl)-propionamide], the IC50 under setting [1] came to 6 nM.

As to `COc1ccc(Cn2c(CCC(=O)NCc3cccc(C)c3)nc3cccnc32)cc1` [Example 115, 3-[3-(4-Methoxy-benzyl)-3H-imidazo[4,5-b]pyridin-2-yl]-N-(3-methyl-benzyl)-propionamide], the IC50 under setting [1] was determined as 650 nM. The same measure, in the same setting: the value for `C[C@H](NC(=O)CCc1nc2cccnc2n1Cc1ccc(O)cc1)c1ccc(F)cc1` [Example 155, N—[(S)-1-(4-fluoro-phenyl)-ethyl]-3-[3-(4-hydroxy-benzyl)-3H-imidazo[4,5-b]pyridin-2-yl]-propionamide] was 254 nM; that for `CN(C)CCOc1ccc(CNC(=O)CCc2nc3cccnc3n2Cc2ccc(OC(F)(F)F)cc2)cc1` [Example 19, N-[4-(2-Dimethylamino-ethoxy)-benzyl]-3-[3-(4-trifluoromethoxy-benzyl)-3H-imidazo[4,5-b]pyridin-2-yl]-propionamide] was 4 nM.
